For 16 compounds, TGI results are on record in PubChem BioAssay (NCI).

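Protocol summary: plate cells (96-well), add compound at 5 concentrations, incubate 48 h, interpolate endpoints linearly. TGI marks complete inhibition of growth.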 Bounds are passed on as bounds.

Some test systems named below: A549 NSCLC; KM12 colon; SW-620 colon; LOX IMVI melanoma; K-562 leukemia; SK-MEL-2 melanoma; SF-268 CNS; SF-539 CNS; CCRF-CEM leukemia; SN12C renal.
What all share (test): growth of human tumour cells (NCI), 48 h

Take `C=C(Cl)C(C)(Cl)CCC(Br)C(C)(C)Cl` (stereo not given): the TGI is greater than 100 µM with A549 NSCLC; 42.9 µM with KM12 colon; 30.9 µM with SW-620 colon; 28 µM in the experiment on LOX IMVI melanoma; greater than 100 µM in the experiment with K-562 leukemia; 37.6 µM in the experiment on SK-MEL-2 melanoma. Also, the TGI in the experiment with SF-268 CNS was greater than 100 µM; in the experiment on SF-539 CNS, 71.7 µM; in the experiment with CCRF-CEM leukemia, 67.2 µM; in the experiment on SN12C renal, 31.6 µM.

`S=C(Nc1ccc2c(c1)oc1ccccc12)c1cccnc1`: the TGI is greater than 100 µM in the experiment on A549 NSCLC; greater than 100 µM in the experiment on KM12 colon; greater than 100 µM with SW-620 colon; greater than 100 µM in the experiment with LOX IMVI melanoma; greater than 100 µM in the experiment with SK-MEL-2 melanoma; 87.4 µM in the experiment with SF-268 CNS. Also, the TGI in the experiment on CCRF-CEM leukemia and in the experiment on SN12C renal was greater than 100 µM in each case.

Regarding `C=CC[C@]12C=C(OC)[C@@H](O)[C@](OC)(C(c3cc(OC)c4c(c3)OCO4)[C@H]1C)[C@H]2OC(C)=O` (stereo not given in full), the TGI in the experiment on A549 NSCLC, in the experiment on KM12 colon, in the experiment on SW-620 colon, in the experiment on K-562 leukemia, in the experiment with SK-MEL-2 melanoma and in the experiment on SF-268 CNS was greater than 100 µM in each case. Besides, the TGI in the experiment on SF-539 CNS, with CCRF-CEM leukemia and in the experiment with SN12C renal was greater than 100 µM in each case.

With `CCC(=O)ONC(=O)Cn1ccc([N+](=O)[O-])n1`, the TGI in the experiment with A549 NSCLC, in the experiment with KM12 colon, in the experiment with SW-620 colon, with LOX IMVI melanoma, in the experiment on K-562 leukemia and in the experiment on SF-268 CNS was greater than 100 µM each time. Also, the TGI in the experiment with SF-539 CNS, in the experiment on CCRF-CEM leukemia and in the experiment with SN12C renal was greater than 100 µM throughout.

Turning to `Cc1ccc(S(=O)(=O)C(C#N)c2nc3ccccc3nc2-n2ccnc2)cc1` (stereo not given), the TGI in the experiment on A549 NSCLC, in the experiment on KM12 colon, with K-562 leukemia, in the experiment with SK-MEL-2 melanoma, in the experiment with SF-268 CNS and in the experiment on SF-539 CNS was greater than 100 µM each time. Further, the TGI in the experiment with CCRF-CEM leukemia and with SN12C renal was greater than 100 µM each time.

`CC(C)=CCNc1ncnc2c1ncn2CCC#N`: the TGI in the experiment on A549 NSCLC, in the experiment on KM12 colon, in the experiment on SW-620 colon, in the experiment with LOX IMVI melanoma, with K-562 leukemia and with SF-268 CNS was greater than 100 µM in each case. The TGI in the experiment with SF-539 CNS, in the experiment on CCRF-CEM leukemia and in the experiment with SN12C renal was greater than 100 µM in each case.

On to `CN(C)c1ccc(C2SCC(=O)N2c2ccc(Oc3ccc(Cl)cc3)c(Cl)c2)cc1` (stereo not given), for which the TGI in the experiment on A549 NSCLC was 60.3 µM; in the experiment with KM12 colon, 40.9 µM; in the experiment on SW-620 colon, greater than 100 µM; with LOX IMVI melanoma, 39.5 µM; with SK-MEL-2 melanoma, 54.1 µM; in the experiment on SF-268 CNS, 37.9 µM. For the same compound, the TGI is 40.4 µM in the experiment with SF-539 CNS, 69.5 µM with CCRF-CEM leukemia and 50 µM in the experiment on SN12C renal.

In the case of `COC(=O)C1CCCN1C(=O)C(Cc1cn(S(=O)(=O)c2ccc(C)cc2)cn1)NC(=O)OC(C)(C)C` (stereo not given), the TGI with A549 NSCLC, in the experiment with KM12 colon, in the experiment with SW-620 colon, in the experiment with K-562 leukemia, in the experiment with SK-MEL-2 melanoma and with CCRF-CEM leukemia was greater than 100 µM each time. For the same compound, in the experiment on SN12C renal, the TGI is greater than 100 µM.

As for `O=C1C(=Cc2ccccc2O)N=C(c2ccccc2)N1n1c(-c2ccccc2)nc2ccccc2c1=O`, the TGI in the experiment with A549 NSCLC is greater than 100 µM; in the experiment on KM12 colon it was 98.4 µM; in the experiment on SW-620 colon, greater than 100 µM; in the experiment on LOX IMVI melanoma, greater than 100 µM; in the experiment with K-562 leukemia, 78.2 µM; in the experiment with SF-268 CNS it was 88.3 µM. For the same compound, the TGI in the experiment on SF-539 CNS is 50 µM; in the experiment with CCRF-CEM leukemia, 88.6 µM; in the experiment on SN12C renal, greater than 100 µM.

Regarding `CCCCN=C(c1ccccc1)N1CCOCC1`, the TGI with KM12 colon, with SW-620 colon, in the experiment on LOX IMVI melanoma, with K-562 leukemia, with SK-MEL-2 melanoma and in the experiment with SF-268 CNS was greater than 100 µM throughout. In addition, the TGI in the experiment with SF-539 CNS, in the experiment with CCRF-CEM leukemia and with SN12C renal was greater than 100 µM throughout.

Regarding `COc1ccc(C2COc3cc(O)c(O)cc3C2)cc1` (stereo not given), the TGI came to 188 µM in the experiment with A549 NSCLC; 164 µM in the experiment with KM12 colon; 500 µM with LOX IMVI melanoma; 34.2 µM in the experiment on K-562 leukemia; 146 µM in the experiment with SK-MEL-2 melanoma; 127 µM in the experiment on SF-268 CNS. In addition, the figures for the TGI in the experiment with SF-539 CNS, in the experiment with CCRF-CEM leukemia and with SN12C renal were 136 µM, 16.1 µM and 166 µM, respectively.

Turning to `CCN1CCC(O)(/C=C/c2ccc(C)cc2C)C(C(=O)/C=C/c2ccc(C)cc2C)C1` (stereo not given), the TGI in the experiment on A549 NSCLC was 11.1 µM; with SW-620 colon, 10.4 µM; with LOX IMVI melanoma, 3.71 µM; with K-562 leukemia it was greater than 100 µM; in the experiment on SK-MEL-2 melanoma, 11.1 µM; in the experiment on SF-268 CNS, 9.12 µM. Also, the TGI in the experiment with SF-539 CNS was 4.18 µM; with CCRF-CEM leukemia, 7.8 µM; with SN12C renal, 7.04 µM.

Take `CC(C(O)Cc1ccccc1)N(C)N=Nc1ccc([N+](=O)[O-])cc1` (stereo not given): the TGI in the experiment on A549 NSCLC was 72 µM; in the experiment with KM12 colon, 53.2 µM; with SW-620 colon, 60.6 µM; in the experiment on K-562 leukemia, greater than 100 µM; in the experiment with SK-MEL-2 melanoma, 40.6 µM; in the experiment with SF-268 CNS, 47.3 µM. Also, the TGI in the experiment with CCRF-CEM leukemia is greater than 100 µM; with SN12C renal, 44.9 µM.

With `O=C1NC(=O)C(CC2CCCCCCCCCCC2=O)C(=O)N1` (stereo not given), the TGI in the experiment with A549 NSCLC, in the experiment with KM12 colon, in the experiment with SW-620 colon, in the experiment with LOX IMVI melanoma, with SK-MEL-2 melanoma and in the experiment on SF-268 CNS was greater than 100 µM each time. In addition, the TGI in the experiment with SF-539 CNS, with CCRF-CEM leukemia and in the experiment with SN12C renal was greater than 100 µM each time.

In the case of `COc1ccc(/C=C2\N=C(SC)NC2=O)cc1`, the TGI in the experiment on A549 NSCLC, in the experiment on KM12 colon, with SW-620 colon, in the experiment on LOX IMVI melanoma, in the experiment with SK-MEL-2 melanoma and in the experiment with SF-268 CNS was greater than 100 µM each time. The TGI with SF-539 CNS, with CCRF-CEM leukemia and with SN12C renal was greater than 100 µM each time.

As to `O=C(CN(c1ccccc1)c1ccccc1)n1nnc2ccccc21`, the TGI with A549 NSCLC is greater than 100 µM; in the experiment with SW-620 colon, greater than 100 µM; with LOX IMVI melanoma it was 70.3 µM; in the experiment on K-562 leukemia, greater than 100 µM; with SK-MEL-2 melanoma it was 96 µM; in the experiment with SF-268 CNS, greater than 100 µM. Also, the TGI in the experiment with SF-539 CNS, with CCRF-CEM leukemia and in the experiment with SN12C renal was greater than 100 µM throughout.
